Experimental data from patent US9932479B2, “Dyes and compositions, and processes for using same in analysis of protein aggregation and other applications” (Enzo Biochem, Inc., priority 2009, dated 2018).

Key:
[1] = biological target: T1, recombinant human alpha-synuclein (ASN) aggregate (Homo sapiens, UniProt P37840); assay: Fluorescence excitation and emission spectra of dye in the presence of aggregated alpha-synuclein; type: binding; conditions: for In the presence of aggregate: Emission wavelength / In the presence of aggregate: Excitation wavelength: 1 μM aggregated ASN, 50 mM Tris-HCl, pH 7.8, 10 μM dye
T1 construct: purchased Sigma-Aldrich
Protocol: (§1) Fluorescent readings were carried out in 50 mM Tris-HCl, pH 7.8 using 10 μM dye. […] Fluorescence excitation and emission spectra were collected on a Cary Eclipse fluorescence spectrophotometer (Varian, Australia). Fluorescence spectra were measured with excitation and emission slit widths set to 5 nm, and at a constant PMT voltage. Spectroscopic measurements were performed in standard quartz cells. All measurements were made at the respective excitation maxima of each dye. All measurements were carried out at room temperature.

[2] = Fluorescence excitation and emission spectra of dye freely dissolved in buffer; type: physicochemical; conditions: 50 mM Tris-HCl, pH 7.8, 10 μM dye, room temperature
Protocol: as §1

Goat anti-mouse IgG = assay: High-throughput protein formulation optimization: effect of excipients on IgG aggregation at 50° C., S-25/Tol3 readout; type: biochemical; conditions: 0.2% Triton X-100; 50° C. for 6 hours
Protocol: (A). Goat anti-mouse IgG was diluted in sodium acetate, pH 4.5, then mixed with the excipients shown in FIG. 10 A giving a final concentration of 400 mM sodium acetate, 18 μM IgG and the excipient concentration shown in the Table 2. This mixture was heated to 50° C. for 6 hours. At this time the protein solution was diluted two-fold to give a final concentration of 50 mM Histidine buffer, originally pH 7, 2.5 μM S-25, 2.5 μM Tol3 and 9 μM IgG. After 30 minutes of incubation on the shaker, the fluorescence intensity was recorded on the plate reader (FLUOstar Optima). The fluorescence intensity from each individual excipient was then compared with that without any excipient (Value set as 1.0) as shown on the top of the corresponding excipient bar in FIG. 12 A.
(B). In the control plate, the IgG was added to the plate, at the same volume and concentration given above (Example 17A) in 400 mM Sodium Acetate. This mixture was heated to 50° C. for 6 hours, as described above. After 6 hours, the excipient was added followed by S-25 and Tol3 to give all the final concentrations as shown in Example 17A. Similar to the sample plate, the fluorescence intensity from individual excipients was also compared with that from water without any excipient (Values set as 1.0) to obtain the relative fluorescent intensity as shown on the top of the corresponding excipient bar in FIG. 12B.
(C). […]

[3] = system: goat-anti-mouse IgG aggregate; assay: Fluorescence enhancement (aggregate/native IgG) in the presence of excipients; type: binding; conditions: for Fluorescence enhancement (aggregate/native IgG): 2.8 μM IgG, 0.625 μM dye; for Fluorescence enhancement (aggregate/native IgG), Average: Average over all excipient conditions
Protocol: IgG aggregate was prepared by adjusting 5.83 mg/ml of purified goat-anti-mouse IgG (H&L, Pel Freez, Rogers, Ark.) to pH 2.7 using HCl and incubating at 22° C. for 24 hours. The assay was performed using 2.8 μM IgG, either native or aggregated, and a dye concentration of 0.625 μM. The protein and dye were mixed together for 15 minutes at 22° C., then this was further incubated in the presence of the excipients shown in the table. The fluorescence intensity of S-25, Tol3 and Y2150 were determined with a FLUOstar OPTIMA plate reader (BMG LABTECH) at excitation wavelength of 550 nm and emission wavelength of 610 nm; while the fluorescence intensity for Thioflavin-T was determined using a SpectraMAX GeminiXS (Molecular device, with Softmax Pro 7.0) using an excitation wavelength of 435 nm and emission wavelength of 495 nm. The fluorescence enhancement (aggregate/native IgG) is shown.

CCN(CC)c1ccc(/C=C/c2cc[n+](Cc3ccccc3C[n+]3ccc(/C=C/c4ccc(N(CC)CC)cc4)cc3)cc2)cc1.[Br-].[Br-] [Yat 2148]
In the presence of aggregate: Emission wavelength [1]: 625 nm | In the presence of aggregate: Excitation wavelength [1]: 553 nm

CCN(CC)c1ccc(/C=C/c2cc[n+](CCCC[n+]3ccc(/C=C/c4ccc(N(CC)CC)cc4)cc3)cc2)cc1.[I-].[I-] [Yat 2134]
In the presence of aggregate: Emission wavelength [1]: 613 nm | In the presence of aggregate: Excitation wavelength [1]: 535 nm | Dye freely dissolved in buffer: Emission wavelength [2]: 620 nm | Dye freely dissolved in buffer: Excitation wavelength [2]: 500 nm

Triton X-100
Effect on aggregation of IgG (fluorescence ratio sample plate / control plate) (Goat anti-mouse IgG): induce aggregation of IgG

Cc1ccc2c(c1)sc(-c1ccc(N(C)C)cc1)[n+]2C.[Cl-] [Thioflavin-T, Thioflavin T, reference compound]
In the presence of aggregate: Emission wavelength [1]: 480 nm | In the presence of aggregate: Excitation wavelength [1]: 447 nm | Stokes shift ([1]; as seen in Table 1): 23 nm | Dye freely dissolved in buffer: Emission wavelength [2]: 472 nm | Dye freely dissolved in buffer: Excitation wavelength [2]: 400 nm | Fluorescence enhancement (aggregate/native IgG) ([3]; Ammonium Sulfate, 10 mM): 2.8 fold | Fluorescence enhancement (aggregate/native IgG) ([3]; Ammonium Sulfate, 100 mM): 2.6 fold | Fluorescence enhancement (aggregate/native IgG) ([3]; Ammonium Sulfate, 300 mM): 1.4 fold | Fluorescence enhancement (aggregate/native IgG) ([3]; Arginine, 200 mM): 1.4 fold | Fluorescence enhancement (aggregate/native IgG) ([3]; Arginine, 500 mM): 2.0 fold | Fluorescence enhancement (aggregate/native IgG) ([3]; Ascoric Acid, 1 mM): 1.5 fold | Fluorescence enhancement (aggregate/native IgG), Average [3]: 2.9 fold | Fluorescence enhancement (aggregate/native IgG) ([3]; Calcium Chloride, 10 mM): 3.1 fold | Fluorescence enhancement (aggregate/native IgG) ([3]; Calcium Chloride, 50 mM): 1.5 fold | Fluorescence enhancement (aggregate/native IgG) ([3]; Calcium Chloride, 200 mM): 1.7 fold | Fluorescence enhancement (aggregate/native IgG) ([3]; DTT, 1 mM): 1.6 fold | Fluorescence enhancement (aggregate/native IgG) ([3]; Glycine, 0.5%): 3.1 fold | Fluorescence enhancement (aggregate/native IgG) ([3]; Glycine, 2%): 3.2 fold | Fluorescence enhancement (aggregate/native IgG) ([3]; Lactose, 100 mM): 1.2 fold | Fluorescence enhancement (aggregate/native IgG) ([3]; Lactose, 300 mM): 1.4 fold | Fluorescence enhancement (aggregate/native IgG) ([3]; Mannitol, 100 mM): 3.1 fold | Fluorescence enhancement (aggregate/native IgG) ([3]; Mannitol, 300 mM): 3.7 fold | Fluorescence enhancement (aggregate/native IgG) ([3]; Mannitol, 600 mM): 1.8 fold | Fluorescence enhancement (aggregate/native IgG) ([3]; Sodium Chloride, 10 mM): 1.6 fold | Fluorescence enhancement (aggregate/native IgG) ([3]; Sodium Chloride, 100 mM): 1.3 fold | Fluorescence enhancement (aggregate/native IgG) ([3]; Sodium Chloride, 1000 mM): 2.7 fold | Fluorescence enhancement (aggregate/native IgG) ([3]; Sorbitol, 100 mM): 3.0 fold | Fluorescence enhancement (aggregate/native IgG) ([3]; Sorbitol, 300 mM): 1.9 fold | Fluorescence enhancement (aggregate/native IgG) ([3]; Sorbitol, 600 mM): 3.6 fold | Fluorescence enhancement (aggregate/native IgG) ([3]; Trehalose, 100 mM): 2.2 fold | Fluorescence enhancement (aggregate/native IgG) ([3]; Trehalose, 300 mM): 0.2 fold | Fluorescence enhancement (aggregate/native IgG) ([3]; Trehalose, 600 mM): 4.8 fold | Fluorescence enhancement (aggregate/native IgG) ([3]; Tween 20, 0.01%): 4.6 fold | Fluorescence enhancement (aggregate/native IgG) ([3]; Tween 20, 0.2%): 2.6 fold | Fluorescence enhancement (aggregate/native IgG) ([3]; X100, 0.01%): 5.3 fold | Fluorescence enhancement (aggregate/native IgG) ([3]; X100, 0.2%): 6.6 fold | Fluorescence enhancement (aggregate/native IgG) ([3]; X100, 1%): 3.4 fold

CCN(CC)c1ccc(/C=C/c2cc[n+](CCCCCCCCCC[n+]3ccc(/C=C/c4ccc(N(CC)CC)cc4)c(C)c3)cc2C)cc1 [Yat 2150]
In the presence of aggregate: Emission wavelength [1]: 610 nm | In the presence of aggregate: Excitation wavelength [1]: 515 nm | Dye freely dissolved in buffer: Emission wavelength [2]: 612 nm | Dye freely dissolved in buffer: Excitation wavelength [2]: 485 nm | Fluorescence enhancement (aggregate/native IgG) ([3]; Ammonium Sulfate, 10 mM): 12.4 fold | Fluorescence enhancement (aggregate/native IgG) ([3]; Ammonium Sulfate, 100 mM): 12.5 fold | Fluorescence enhancement (aggregate/native IgG) ([3]; Ammonium Sulfate, 300 mM): 14.6 fold | Fluorescence enhancement (aggregate/native IgG) ([3]; Arginine, 200 mM): 14.4 fold | Fluorescence enhancement (aggregate/native IgG) ([3]; Arginine, 500 mM): 14.3 fold | Fluorescence enhancement (aggregate/native IgG) ([3]; Ascoric Acid, 1 mM): 14.5 fold | Fluorescence enhancement (aggregate/native IgG), Average [3]: 14.8 fold | Fluorescence enhancement (aggregate/native IgG) ([3]; Calcium Chloride, 10 mM): 12.4 fold | Fluorescence enhancement (aggregate/native IgG) ([3]; Calcium Chloride, 50 mM): 14.7 fold | Fluorescence enhancement (aggregate/native IgG) ([3]; Calcium Chloride, 200 mM): 13.9 fold | Fluorescence enhancement (aggregate/native IgG) ([3]; DTT, 1 mM): 11.3 fold | Fluorescence enhancement (aggregate/native IgG) ([3]; Glycine, 0.5%): 12.5 fold | Fluorescence enhancement (aggregate/native IgG) ([3]; Glycine, 2%): 19.0 fold | Fluorescence enhancement (aggregate/native IgG) ([3]; Lactose, 100 mM): 17.5 fold | Fluorescence enhancement (aggregate/native IgG) ([3]; Lactose, 300 mM): 31.0 fold | Fluorescence enhancement (aggregate/native IgG) ([3]; Mannitol, 100 mM): 11.2 fold | Fluorescence enhancement (aggregate/native IgG) ([3]; Mannitol, 300 mM): 13.8 fold | Fluorescence enhancement (aggregate/native IgG) ([3]; Mannitol, 600 mM): 17.7 fold | Fluorescence enhancement (aggregate/native IgG) ([3]; Sodium Chloride, 10 mM): 14.4 fold | Fluorescence enhancement (aggregate/native IgG) ([3]; Sodium Chloride, 100 mM): 11.3 fold | Fluorescence enhancement (aggregate/native IgG) ([3]; Sodium Chloride, 1000 mM): 15.0 fold | Fluorescence enhancement (aggregate/native IgG) ([3]; Sorbitol, 100 mM): 17.3 fold | Fluorescence enhancement (aggregate/native IgG) ([3]; Sorbitol, 300 mM): 15.6 fold | Fluorescence enhancement (aggregate/native IgG) ([3]; Sorbitol, 600 mM): 18.7 fold | Fluorescence enhancement (aggregate/native IgG) ([3]; Trehalose, 100 mM): 14.0 fold | Fluorescence enhancement (aggregate/native IgG) ([3]; Trehalose, 300 mM): 19.4 fold | Fluorescence enhancement (aggregate/native IgG) ([3]; Trehalose, 600 mM): 18.9 fold | Fluorescence enhancement (aggregate/native IgG) ([3]; Tween 20, 0.01%): 5.5 fold | Fluorescence enhancement (aggregate/native IgG) ([3]; Tween 20, 0.2%): 2.6 fold | Fluorescence enhancement (aggregate/native IgG) ([3]; X100, 0.01%): 4.1 fold | Fluorescence enhancement (aggregate/native IgG) ([3]; X100, 0.2%): 2.6 fold | Fluorescence enhancement (aggregate/native IgG) ([3]; X100, 1%): 1.7 fold

CN(C)c1ccc(/C=C/c2cc[n+](Cc3ccccc3C[n+]3ccc(/C=C/c4ccc(N(C)C)cc4)cc3)cc2)cc1.[Br-].[Br-] [Dye S43]
In the presence of aggregate: Emission wavelength [1]: 623 nm | In the presence of aggregate: Excitation wavelength [1]: 550 nm

CCN(CC)c1ccc(/C=C/c2cc[n+](CCOCC[n+]3ccc(/C=C/c4ccc(N(CC)CC)cc4)cc3)cc2)cc1.[I-].[I-] [Yat 2149]
In the presence of aggregate: Emission wavelength [1]: 617 nm | In the presence of aggregate: Excitation wavelength [1]: 534 nm | Dye freely dissolved in buffer: Emission wavelength [2]: 614 nm | Dye freely dissolved in buffer: Excitation wavelength [2]: 502 nm
